This is an account of results in patent publication US12251427B2, “Reduced oxygen carriers and their use for the treatment of carboxyhemoglobinemia” (priority 2016, dated 2025).

The subject of data set [1] is isolated liver mitochondria. As to the kind of experiment: Mitochondrial respiration, Clark-type oxygen electrode, isolated liver mitochondria. Details: species or system rat. The conditions noted are these: for reduction of respiration: tissue not specified. Here is the method:
Mitochondrial respiration was measured before and after CO gas exposure in a Clark-type oxygen electrode respirometry system. The effects of infusion of both reduced hemoglobin and myoglobin were evaluated. Fresh liver was collected from a normal rat, and mitochondria were isolated through differential centrifugation. For left ventricle (LV) tissue, fresh LV was collected from a normal rat and then homogenized. The resulting mitochondria and LV tissue was put into the Clark-type electrode air tight reaction chamber, then substrates (succinate (mitochondria) or malate and pyruvate (LV) and ADP) were added. Mitochondria respired to 0% oxygen and then the system was reoxygenated with a pipetted injection of room air. Mitochondria respired back down to the desired 02 concentration. At this point, CO was added, either in gas form or saturated PBS solution. The system was then reoxygenated, and respiration occurred down to 0%. These rates of respiration were compared with pre-CO exposure. The reason for the first reoxygenation step was to more equally compare rates of mitochondria that have experienced some hypoxia, which can damage their function. After this was completed, CO scavenging agents were added, the system was reoxygenated and this final rate of respiration was compared both to pre-CO and post-CO respiration.
CO was then infused, the system was reoxygenated, and rates of respiration were compared. After respiration to 0% 02, myoglobin was infused, the system was reoxygenated and the rates were compared.
CO poisoning has long term effects on patients, and one theory is the poisoning of mitochondria leads to generation of increased reactive oxygen species (ROS) through the inhibition of complex IV of the electron transport chain. A model to measure the amount of inhibition produced by CO exposure and quantify it through respiratory rates was developed. In a Clark electrode, the oxygen respiration of isolated mitochondria from rat livers and left ventricle (LV) homogenate was measured, with the addition of the substrates succinate and ADP to measure maximal respiration. […] This effect was stronger in more hypoxic states, consistent with the known competition between CO and O2 for binding at the heme in cytochrome c oxidase (62% reduction in hypoxia versus ˜50% in normoxia).

The test system of another data set is LV homogenate. Nature of the data set: Cardiac tissue respiration, Clark-type oxygen electrode, LV homogenate. Details: species or system rat. The method, then: Mitochondrial respiration was measured before and after CO gas exposure in a Clark-type oxygen electrode respirometry system. The effects of infusion of both reduced hemoglobin and myoglobin were evaluated. Fresh liver was collected from a normal rat, and mitochondria were isolated through differential centrifugation. For left ventricle (LV) tissue, fresh LV was collected from a normal rat and then homogenized. The resulting mitochondria and LV tissue was put into the Clark-type electrode air tight reaction chamber, then substrates (succinate (mitochondria) or malate and pyruvate (LV) and ADP) were added. Mitochondria respired to 0% oxygen and then the system was reoxygenated with a pipetted injection of room air. Mitochondria respired back down to the desired 02 concentration. […]
CO poisoning has long term effects on patients, and one theory is the poisoning of mitochondria leads to generation of increased reactive oxygen species (ROS) through the inhibition of complex IV of the electron transport chain. A model to measure the amount of inhibition produced by CO exposure and quantify it through respiratory rates was developed. In a Clark electrode, the oxygen respiration of isolated mitochondria from rat livers and left ventricle (LV) homogenate was measured, with the addition of the substrates succinate and ADP to measure maximal respiration. […]

The conditions of data set [2]: cited from earlier work; for Kd: CO; for kon: rate of CO binding; for koff: rate of CO dissociation.
Data set [3] deals with mice exposed to 30,000 ppm (3%) CO gas. As to the kind of experiment: Severe CO poisoning mouse model: survival and hemodynamics. It counts as in vivo. Particulars: for effect on hemodynamic collapse (heart rate, mean arterial blood pressure) induced by CO: infusion after 4.5 minutes of 3% CO; for mortality: 3% CO 4.5 minutes. The method, then: To establish a model for cardiovascular and mortality end points, tracheally intubated, ventilated, anesthetized mice were exposed to 30,000 ppm (3%) CO gas, with 21% oxygen and 1.5% isoflurane for 4.5 minutes. Mice were surgically instrumented with placement of jugular venous (for infusion of drug) and carotid arterial (for blood pressure and heart rate monitoring) catheters. In this model, there was 88.2% (15/17) mortality in a group infused with 300 μL of PBS post exposure, while all mice that received an infusion of 11 mM myoglobin survived (0% mortality; n=5). Survival of mice infused with myoglobin was due to the reversal in hemodynamic collapse and bradycardia induced by CO (FIG. 5).
Tracheally intubated, ventilated, anesthetized mice were exposed to 30,000 ppm (3%) CO gas, with 21% oxygen and 1.5% isoflurane for 4.5 minutes. Mice were surgically instrumented with placement of jugular venous (for infusion of drug) and carotid arterial (for blood pressure and heart rate monitoring) catheters. In this model, all mice that received PEG-Hb (n=3) survived. The concentration infused was 10 mM at approximately 200 to 250 microliters volume.

Data set [4] deals with HbCO. As to the kind of experiment: Severe CO poisoning mouse model: HbCO level by spectrometry. It counts as in vivo, mice. The method, then: To establish a model for cardiovascular and mortality end points, tracheally intubated, ventilated, anesthetized mice were exposed to 30,000 ppm (3%) CO gas, with 21% oxygen and 1.5% isoflurane for 4.5 minutes. Mice were surgically instrumented with placement of jugular venous (for infusion of drug) and carotid arterial (for blood pressure and heart rate monitoring) catheters.
(§1) Through the jugular venous catheter, the HbCO level was sampled using spectrometry. […] Mouse half-life for CO is much faster than for humans.
Tracheally intubated, ventilated, anesthetized mice were exposed to 30,000 ppm (3%) CO gas, with 21% oxygen and 1.5% isoflurane for 4.5 minutes. Mice were surgically instrumented with placement of jugular venous (for infusion of drug) and carotid arterial (for blood pressure and heart rate monitoring) catheters. […] The concentration infused was 10 mM at approximately 200 to 250 microliters volume.
as §1

A short description of data set [5]: Safety of oxygen carriers in healthy mice. It counts as in vivo. The conditions noted are these: for tolerability of infusion: retro-orbital injection, 8-12 mM, observed for 48 hours; for blood chemistries: serum at 48 hours; for hematology profile: whole blood at 48 hours. The method, then: Healthy mice were anesthetized with 3% isoflurane gas and myoglobin and hemoglobin were injected into the retro-orbital space. […] At 48 hours, the animals were sacrificed, their serum was analyzed for blood chemistries and whole blood was tested for complete blood count.

Data set [6] has as its system HbCO. As to the kind of experiment: In vitro model of CO poisoning: CO scavenging from HbCO / carboxylated RBCs. The data set is classed as biochemical. The method, then: FIGS. 4A-4C are graphs showing the in vitro binding of CO from hemoglobin by wild type equine myoglobin. PBS or myoglobin (100 μL) was infused into a solution containing carboxylated red blood cells in the presence of 5 mM sodium dithionite at 37° C. Samples were taken from the reaction mixture at several time points and the RBCs were separated from the supernatant (containing the Mb) by centrifugation. The amount of HbCO/MbCO in each fraction was determined by UV-vis spectroscopy. (FIG. 4A) Carboxylated RBCs mixed with PBS. (FIG. 4B and FIG. 4C) Two sample experiments where different amounts of carboxylated RBCs were mixed with Mb. […]
Oxygenated or deoxygenated myoglobin (Mb) was prepared following the same procedure as that described for the experiments with pure Hb. In some experiments, after initiating the reaction, red cells were separated from Mb to measure absorbance spectra. […] Hb absorbance in the lysed RBC solution was measured with the Cary 50 spectrophotometer in a 1 cm path length cuvette. This cycle was repeated six times, each 1.5-5 minutes, giving six absorbance measurements of the Hb. […] The time when absorbance of hemoglobin was measured in the reaction was assumed to be the time elapsed after injection of Mb to 15 or 30 seconds after the start of centrifugation (for 30 or 60 second centrifugation durations, respectively). […]

In the case of `[C-]#[O+]` [CO, carbon monoxide], the “decrease of respiration from pre-CO (maximal) respiration” value is recorded as 60.5% in data set [1] (CO gas versus room air) and 75.6% in the data set with LV homogenate (CO gas versus air). Besides, the reduction of respiration in data set [1] (hypoxia) is recorded as 62%; in data set [1] (normoxia), approximately 50%.

The Kd is the concentration at which binding is half-saturated. Broadly, the kon is a measure of how fast the partners come together. Usually koff stands for a measure of how fast the partners let go of each other. As for “Human Hb (alpha subunit, R-state): human hemoglobin alpha subunit, R-state”, in data set [2], the Kd was 2 nM, the kon is 6e+06 M⁻¹ s⁻¹ and the koff is 0.012 s⁻¹.

Regarding “Human Hb (alpha subunit, T-state): human hemoglobin alpha subunit, T-state”, in data set [2], the Kd is 1750 nM, the kon is 120000 M⁻¹ s⁻¹ and the koff was 0.21 s⁻¹.

For the molecule “Human Hb (beta subunit, R-state): human hemoglobin beta subunit, R-state”, in data set [2], the Kd was 0.946 nM, the kon is 7.4e+06 M⁻¹ s⁻¹ and the koff was 0.007 s⁻¹.

Regarding “Human Hb (beta subunit, T-state): human hemoglobin beta subunit, T-state”, in data set [2], the Kd is 3800 nM, the kon was 50000 M⁻¹ s⁻¹ and the dissociation rate constant (koff) was 0.19 s⁻¹.

“PEG-Hb: surface conjugation of polyethylene glycol to human hemoglobin; artificial oxygen carrier”: the survival entry in data set [3] (10 mM, approximately 200 to 250 microliters, n=3) is recorded as “survived”. In addition, in data set [3], the “effect on hemodynamic collapse (heart rate, mean arterial blood pressure) induced by CO” value (“effect on hemodynamic collapse” below) is on record as “restored”. The HbCO level in the data set with HbCO [4] (five minutes after infusion, Example 9) is 66%; in the data set with HbCO [4] (ten minutes after treatment, Example 9), 62%.

With “hemoglobin: hemoglobin, natural oxygen carrier, infused in reduced (deoxy) form as CO scavenger”, the survival entry in data set [3] (infused with <4 mM) is on record as “died”. Moreover, the survival result in data set [3] (infused with ≥4 mM) is on record as “all survived”. For the same molecule, the “effect on hemodynamic collapse” value in data set [3] was “reversed”. In data set [5], the tolerability of infusion result was “well tolerated”; the blood chemistries result was “normal kidney and liver function”; the hematology profile result is “only a slight decline in platelets”. In data set [1] (0.5 equimolar, after CO gas), the “increase of respiration from the CO inhibited rate” value stood at 95%.

B1: Equine Myoglobin: wild type equine myoglobin, natural oxygen carrier, used in reduced (deoxy) form as CO scavenger (protein, UniProt P68082 2-154, looked up)
Myoglobin: GLSDGEWQQVLNVWGKVEADIAGHGQEVLIRLFTGHPETLEKFDKFKHLKTEAEMKASEDLKKHGTVVLTALGGILKKKGHHEAELKPLAQSHATKHKIPIKYLEFISDAIIHVLHSKHPGDFGADAQGAMTKALELFRNDIAAKYKELGFQG
modifications: deoxy form
notes: wild type equine myoglobin, natural oxygen carrier, used in reduced (deoxy) form as CO scavenger
In general, mortality refers to the percentage killed. Read a low mortality as more survivors. In the case of B1, the “HbCO reduced, CO bound by myoglobin” value in the data set with HbCO [6] (100% HbCO, anaerobic, added in a 1:1 ratio) is “more than half”. In addition, in the data set with HbCO [6] (added in deficit: 110.8 μM HbCO versus 85.3 μM deoxy-myoglobin), the HbCO concentration reduced result is “one third”. In data set [3] (concentration greater than 11 mM, n=10), this molecule returned a survival of 100%. In addition, in data set [3] (concentrations less than 11 mM, n=4), the survival is 0%. Further, the “concentration needed to reverse the hemodynamic collapse induced by severe CO poisoning” value in data set [3] (infused concentration) was “greater than 11 mM”. In data set [3], the “effect on hemodynamic collapse” value is recorded as “reversal”. In data set [3] (listed as reduced myoglobin), the “effect on hemodynamic collapse” value was “restoration”. In addition, in data set [3] (infusion of 11 mM, n=5), the mortality stood at 0%. The molecule also had a mortality in data set [3] (infusion of 300 μL of 11.5 mM reduced form) of 0%. In the data set with HbCO [4] (five minutes after infusion, Example 4), this molecule registered a HbCO level of 65.04%. Besides, the HbCO level in the data set with HbCO [4] (ten minutes after treatment, Example 4) was found to be 52.8%. Further, in data set [5], the tolerability of infusion entry is recorded as “well tolerated”; the blood chemistries entry was “normal kidney and liver function”; the hematology profile result was “only a slight decline in platelets”. Further, the “increase of respiration from the CO inhibited rate” value in the data set on LV homogenate (0.5 equimolar, after CO gas) is recorded as 199%. The “affinity for CO relative to oxygen” value in data set [2] (CO versus O2) was 60 fold. Further, in data set [2], the Kd is 68.8 nM, the kon is 510000 M⁻¹ s⁻¹ and the koff is 0.035 s⁻¹.
